Data taken from patent US9404081B2, “Pyruvate kinase activators for use in therapy” (AGIOS PHARMACEUTICALS, INC., priority 2011, dated 2016).

Key:
Type in all cases: biochemical
[1] = molecular target: PKR R510Q (Homo sapiens, UniProt P30613, R510Q); experiment: PKR R510Q Single Point Percent Activation Assay; settings: read-out: Act. % 510Q
Procedure: PKR R510Q Single Point Percent Activation Assay
(§1) A compound described herein was diluted with DMSO and tested at 1 μM concentration. The enzyme was diluted in 1× Buffer: (100 mM KCl, 50 mM Tris 7.5, 5 mM MgCl2, 1 mM DTT, 0.03% BSA). 2 μL of compound solution was first added into wells, and then 180 μL of enzyme solution was added. Assays were assembled except for ADP, and plates were stored for 60 minutes at RT. 20 μL ADP was added to start the assay and assay output was evaluated using OD340 at SpectraMax. The assay was run at room temperature.
Final concentration: PKR R510Q (40 ng/well), Tris pH 7.5 (50 mM), KCl (100 mM), MgCl2 (5 mM), ADP (0.2 mM), PEP (0.11 mM), NADH (180 μM), LDH (0.5 units, Sigma 59023), DTT (1 mM) and BSA (0.03%).

[2] = molecular target: PKR R532W (Homo sapiens, UniProt P30613, R532W); experiment: PKR R532W Single Point Percent Activation Assay; settings: read-out: Act, % 532W
PKR R532W, sequence (P30613 whole entry R532W): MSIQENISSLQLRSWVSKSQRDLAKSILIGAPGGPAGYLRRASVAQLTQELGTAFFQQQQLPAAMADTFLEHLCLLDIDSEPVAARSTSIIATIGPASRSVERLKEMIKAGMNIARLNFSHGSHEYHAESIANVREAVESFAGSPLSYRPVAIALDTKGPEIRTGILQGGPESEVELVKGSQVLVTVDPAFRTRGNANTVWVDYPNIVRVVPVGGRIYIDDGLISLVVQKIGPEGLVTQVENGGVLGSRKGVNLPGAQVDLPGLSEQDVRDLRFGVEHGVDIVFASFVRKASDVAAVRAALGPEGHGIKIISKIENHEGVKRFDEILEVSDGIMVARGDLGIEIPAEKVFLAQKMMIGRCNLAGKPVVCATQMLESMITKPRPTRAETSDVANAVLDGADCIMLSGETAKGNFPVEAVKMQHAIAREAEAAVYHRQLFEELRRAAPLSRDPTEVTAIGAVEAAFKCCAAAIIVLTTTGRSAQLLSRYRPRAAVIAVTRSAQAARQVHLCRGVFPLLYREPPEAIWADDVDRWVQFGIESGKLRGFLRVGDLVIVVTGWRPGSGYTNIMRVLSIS
Procedure: PKR R532W Single Point Percent Activation Assay
as §1
Final concentration: PKR R532W (100 ng/well), Tris pH 7.5 (50 mM), KCl (100 mM), MgCl2 (5 mM), ADP (0.36 mM), PEP (0.1 mM), NADH (180 μM), LDH (0.5 units, Sigma 59023), DTT (1 mM) and BSA (0.03%).

[3] = molecular target: PKR T384W (Homo sapiens, UniProt P30613, T384W); experiment: PKR T384W Single Point Percent Activation Assay; settings: read-out: Act. % 384W
PKR T384W, sequence (P30613 whole entry T384W): as the sequence (P30613 whole entry R532W) above, with T384W, W532R counted along it
Procedure: PKR T384W Single Point Percent Activation Assay
as §1, with “180 μL enzyme solution” for “180 μL of enzyme solution”
Final concentration: PKR T384W soluble (300 ng/well), Tris pH 7.5 (50 mM), KCl (100 mM), MgCl2 (5 mM), ADP (0.08 mM), PEP (0.23 mM), NADH (180 μM), LDH (0.5 units, Sigma 59023), DTT (1 mM) and BSA (0.03%).

[4] = molecular target: PKR wt (Homo sapiens, UniProt P30613); experiment: PKR WT Single Point Percent Activation Assay
PKR wt, sequence (P30613 whole entry): as the sequence (P30613 whole entry R532W) above, with W532R counted along it
Procedure: PKR WT Single Point Percent Activation Assay
as §1
Final concentration: PKR wt (100 ng/well), Tris pH 7.5 (50 mM), KCl (100 mM), MgCl2 (5 mM), ADP (0.48 mM), PEP (0.15 mM), NADH (180 μM), LDH (0.5 units, Sigma 59023), DTT (1 mM) and BSA (0.03%).

PKR R510Q, sequence (P30613 whole entry R510Q): as the sequence (P30613 whole entry R532W) above, with R510Q, W532R counted along it

Row | SMILES | activation at 1 µM [1] [%] | activation at 1 µM [2] [%] | activation at 1 µM [3] [%] | activation at 1 µM [4] [%]
1 | C[C@H]1CN(CC2CCCC2)CCN1C(=O)c1ccc(NS(=O)(=O)c2cccc3cccnc23)cc1Cl | 1 to 100 | 1 to 100 | 1 to 100 | 1 to 100
2 | C[C@H]1CN(CC2CCOC2)CCN1C(=O)c1ccc(NS(=O)(=O)c2cccc3cccnc23)cc1Cl (stereo partly drawn) | 1 to 100 | 101 to 500 | 101 to 500 | 1 to 100
3 | C[C@H]1CN(Cc2c(F)cc(F)cc2F)CCN1C(=O)c1ccc(NS(=O)(=O)c2cccc3cccnc23)cc1Cl | 101 to 500 | 1 to 100 | 101 to 500 | 101 to 500
4 | CC(c1ccc(F)c(F)c1F)N1CCN(C(=O)c2ccc(NS(=O)(=O)c3cccc4cccnc34)cc2)[C@H](C)C1 (stereo partly drawn) | 1 to 100 | 1 to 100 | 101 to 500 | 101 to 500
5 | CC(c1c(F)ccc(F)c1F)N1CCN(C(=O)c2ccc(NS(=O)(=O)c3cccc4cccnc34)cc2)[C@H](C)C1 (stereo partly drawn) | 1 to 100 | 101 to 500 | 101 to 500 | 101 to 500
6 | CC(c1ccc(F)cc1Cl)N1CCN(C(=O)c2ccc(NS(=O)(=O)c3cccc4cccnc34)cc2)[C@H](C)C1 (stereo partly drawn) | 1 to 100 | 101 to 500 | 101 to 500 | 101 to 500
7 | CC(c1c(F)ccc(F)c1F)N1CCN(C(=O)c2ccc(NS(=O)(=O)c3cccc4cccnc34)cc2)[C@@H](C)C1 (stereo partly drawn) | 1 to 100 | 101 to 500 | 101 to 500 | 1 to 100
8 | O=C1CN(Cc2cc(F)cc(F)c2)CCN1C(=O)c1ccc(NS(=O)(=O)c2cccc3cccnc23)cc1 | 1 to 100 | 101 to 500 | 101 to 500 | 101 to 500
9 | CC1CN(Cc2cc(F)cc(F)c2)CC(C)N1C(=O)c1ccc(NS(=O)(=O)c2cccc3cccnc23)cc1 (stereo not drawn) | 101 to 500 | 101 to 500 | 1 to 100 | 1 to 100
10 | CC1CN(CC2CC2)CC(C)N1C(=O)c1ccc(NS(=O)(=O)c2cccc3cccnc23)cc1 (stereo not drawn) | 1 to 100 | 101 to 500 | 101 to 500 | 101 to 500
11 | CC1CN(Cc2ccc(F)cc2)CC(C)N1C(=O)c1ccc(NS(=O)(=O)c2cccc3cccnc23)cc1 (stereo not drawn) | 1 to 100 | 101 to 500 | 1 to 100 | 1 to 100
12 | CC1CN(Cc2ccc(Cl)c(F)c2)CC(C)N1C(=O)c1ccc(NS(=O)(=O)c2cccc3cccnc23)cc1 (stereo not drawn) | 101 to 500 | 1 to 100 | 101 to 500 | 101 to 500
13 | CC1CN(CC2CCCCC2)CC(C)N1C(=O)c1ccc(NS(=O)(=O)c2cccc3cccnc23)cc1 (stereo not drawn) | 101 to 500 | 101 to 500 | 101 to 500 | 101 to 500
14 | CC1CN(Cc2c(F)ccc(F)c2F)CC(C)N1C(=O)c1ccc(NS(=O)(=O)c2cccc3cccnc23)cc1 (stereo not drawn) | 1 to 100 | 101 to 500 | 1 to 100 | 1 to 100
15 | CC1CN(Cc2cc(F)cc(F)c2F)CC(C)N1C(=O)c1ccc(NS(=O)(=O)c2cccc3cccnc23)cc1 (stereo not drawn) | 101 to 500 | 101 to 500 | 101 to 500 | 101 to 500
16 | CC1CN(Cc2cc(F)c(F)c(F)c2)CC(C)N1C(=O)c1ccc(NS(=O)(=O)c2cccc3cccnc23)cc1 (stereo not drawn) | 1 to 100 | 101 to 500 | 1 to 100 | 1 to 100
17 | CC1CN(Cc2c(F)cc(F)cc2F)CC(C)N1C(=O)c1ccc(NS(=O)(=O)c2cccc3cccnc23)cc1 (stereo not drawn) | 101 to 500 | 101 to 500 | 1 to 100 | 101 to 500
18 | CC1CN(Cc2cc(F)c(F)cc2F)CC(C)N1C(=O)c1ccc(NS(=O)(=O)c2cccc3cccnc23)cc1 (stereo not drawn) | 101 to 500 | 1 to 100 | 1 to 100 | 101 to 500
